Paper PMC9655037, “Alternation of Organ-Specific Exposure in LPS-Induced Pneumonia Mice after the Inhalation of Tetrandrine Is Governed by Metabolizing Enzyme Suppression and Lysosomal Trapping” (International Journal of Molecular Sciences, 2022)
Several values for one entry are separate records, joined by “and”; a condition that tells them apart may be missing. Equal values may be shown once.

Test: Tissue distribution of TET after a single i.t. administration in normal and LPS-treated mice
Conditions: for Kp / AUC(0-inf) / Cmax / MRT / Tmax / half-life / AUC(0-t): BALB/c, mouse; for Kp: other: intratracheal (i.t.), Kp (AUC in tissue divided by AUC in blood); for Kp / AUC(0-inf) / Cmax / MRT / Tmax / half-life / AUC(0-t) / Kp (AUC in tissue divided by AUC in blood): 15 mg/kg, 15 mg/kg i.t.; for AUC(0-inf) / Cmax / MRT / Tmax / half-life / AUC(0-t): inhaled or intranasal
Experimental: The different tissue distribution characteristics of TET in normal and pneumonia model mice via i.t. delivery were investigated. Thirty BALB/c mice were randomly divided into ten groups (n = 3 for each group). Five groups of mice were intratracheally injected with 15 mg/kg TET (dissolved in 22.5 mg/mL aspartic acid solution) as control groups, and the other five groups received i.t. administration of 15 mg/kg TET 6 h after i.t. injection of 50 μL LPS (5 mg/mL) as model groups. One control group and one model group were sacrificed simultaneously at the set time points of 2, 4, 8, 24, and 144 h after the administration of TET. After a cardiac puncture to obtain blood samples, tissue samples including heart, liver, spleen, lung, kidney, stomach, intestine, and brain were immediately harvested and all the tissues were thoroughly rinsed in ice physiological saline. All the tissue samples were weighed and stored with blood samples at −40 °C for LC-MS/MS analysis.
Pharmacokinetic parameters including t1/2, AUC(0-t), AUC(0-∞), and MRT were calculated using WinNonlin 7.0 (Pharsight, CA) by the non-compartmental model. Initial plasma concentration post i.v. (C0-i.v.) was extrapolated from the first three points of the logarithmic plasma concentration. The area under the blood concentration–time curve from t = 0 to infinity (AUCinf) was estimated using the linear trapezoidal rule. Blood clearance (CL) was calculated as the i.v. dose divided by AUCinf. Apparent steady-state distribution volume (Vss) was determined by the clearance multiplied by mean residence time. The distribution volume in the elimination phase (Vz) was determined by the clearance divided by the first-order rate constant of the terminal elimination phase (λz). The tissue partition ratio (Kp) of each tissue was calculated as Equation (1). (1) Kp=AUC(0−∞,tissue)/AUC(0−∞,plasma)

SMILES: COc1ccc2cc1Oc1ccc(cc1)C[C@H]1c3cc(c(OC)cc3CCN1C)Oc1c(OC)c(OC)cc3c1[C@H](C2)N(C)CC3 [TET, Tetrandrine]
- Kp (adipose / blood, LPS-treated mice, adipose): 2.6
- Kp (adipose / blood, normal mice, adipose): 2.4
- AUC(0-inf) (adipose, LPS-treated mice): 816 ± 429 µg·h/mL
- AUC(0-inf) (adipose, normal mice): 501 ± 88.3 µg·h/mL
- Cmax (adipose, LPS-treated mice): 5920 ± 1410 ng/mL
- Cmax (adipose, normal mice): 7380 ± 1790 ng/mL
- MRT (adipose, LPS-treated mice): 102 ± 57.9 h
- MRT (adipose, normal mice): 67.7 ± 37.1 h
- Tmax (adipose, LPS-treated mice): 18.7 ± 9.24 h
- Tmax (adipose, normal mice): 5.33 ± 2.31 h
- half-life (adipose, t1/2, LPS-treated mice): 3.13 ± 1.47 days
- half-life (adipose, t1/2, normal mice): 2.25 ± 0.896 days
- AUC(0-inf) (blood, LPS-treated mice): 326 ± 12.9 µg·h/mL
- AUC(0-inf) (blood, normal mice): 249 ± 16.4 µg·h/mL
- Cmax (blood, LPS-treated mice): 1940 ± 225 ng/mL
- Cmax (blood, normal mice): 2670 ± 50 ng/mL
- MRT (blood, LPS-treated mice): 133 ± 26.1 h
- MRT (blood, normal mice): 111 ± 23.1 h
- Tmax (blood, LPS-treated mice): 24 h
- Tmax (blood, normal mice): 3.33 ± 1.15 h
- half-life (blood, t1/2, LPS-treated mice): 3.98 ± 0.733 days
- half-life (blood, t1/2, normal mice): 3.47 ± 0.642 days
- Kp (blood, LPS-treated mice, blood): 1
- Kp (blood, normal mice, blood): 1
- Kp (brain / blood, LPS-treated mice, brain): 0.6
- Kp (brain / blood, normal mice, brain): 1
- AUC(0-inf) (brain, LPS-treated mice): 179 ± 38.4 µg·h/mL
- AUC(0-inf) (brain, normal mice): 190 ± 51.4 µg·h/mL
- Cmax (brain, LPS-treated mice): 6430 ± 3790 ng/mL
- Cmax (brain, normal mice): 10400 ± 9530 ng/mL
- MRT (brain, LPS-treated mice): 112 ± 35.4 h
- MRT (brain, normal mice): 56.8 ± 26.5 h
- Tmax (brain, LPS-treated mice): 5.33 ± 2.31 h
- Tmax (brain, normal mice): 2 h
- half-life (brain, t1/2, LPS-treated mice): 3.86 ± 1.13 days
- half-life (brain, t1/2, normal mice): 2.15 ± 0.717 days
- Kp (heart / blood, LPS-treated mice, heart): 4.3
- Kp (heart / blood, normal mice, heart): 5.1
- AUC(0-t) (heart, LPS-treated mice): 940 ± 381 µg·h/mL
- AUC(0-t) (heart, normal mice): 880 ± 22.2 µg·h/mL
- AUC(0-inf) (heart, LPS-treated mice): 4090 ± 3400 µg·h/mL
- AUC(0-inf) (heart, normal mice): 1410 ± 21.5 µg·h/mL
- Cmax (heart, LPS-treated mice): 10800 ± 4010 ng/mL
- Cmax (heart, normal mice): 14200 ± 3160 ng/mL
- MRT (heart, LPS-treated mice): 643 ± 376 h
- MRT (heart, normal mice): 137 ± 0.09 h
- Tmax (heart, LPS-treated mice): 4 h
- Tmax (heart, normal mice): 2.67 ± 1.15 h
- half-life (heart, t1/2, LPS-treated mice): 18.7 ± 10.8 days
- half-life (heart, t1/2, normal mice): 4.03 ± 0.269 days
- AUC(0-t) (in vivo, LPS-treated mice, adipose): 566 ± 163 µg·h/mL
- AUC(0-t) (in vivo, LPS-treated mice, blood): 219 ± 17.7 µg·h/mL
- AUC(0-t) (in vivo, LPS-treated mice, brain): 129 ± 46.2 µg·h/mL
- AUC(0-t) (in vivo, LPS-treated mice, kidney): 7940 ± 1170 µg·h/mL
- AUC(0-t) (in vivo, LPS-treated mice, liver): 5890 ± 178 µg·h/mL
- AUC(0-t) (in vivo, LPS-treated mice, muscle): 483 ± 89.5 µg·h/mL
- AUC(0-t) (in vivo, LPS-treated mice, spleen): 9420 ± 942 µg·h/mL
- AUC(0-t) (in vivo, normal mice, adipose): 421 ± 94.4 µg·h/mL
- AUC(0-t) (in vivo, normal mice, blood): 175 ± 12.3 µg·h/mL
- AUC(0-t) (in vivo, normal mice, brain): 168 ± 60.6 µg·h/mL
- AUC(0-t) (in vivo, normal mice, intestine): 1460 ± 134 µg·h/mL
- AUC(0-t) (in vivo, normal mice, kidney): 6510 ± 691 µg·h/mL
- AUC(0-t) (in vivo, normal mice, liver): 4860 ± 334 µg·h/mL
- AUC(0-t) (in vivo, normal mice, lung): 4310 ± 1000 µg·h/mL
- AUC(0-t) (in vivo, normal mice, muscle): 359 ± 79.8 µg·h/mL
- AUC(0-t) (in vivo, normal mice, spleen): 7940 ± 665 µg·h/mL
- AUC(0-t) (in vivo, normal mice, stomach): 929 ± 163 µg·h/mL
- Kp (intestine / blood, normal mice, intestine): 8.3
- AUC(0-t) (intestine, LPS-treated mice): 2390 ± 196 µg·h/mL
- AUC(0-inf) (intestine, LPS-treated mice): 2590 ± 271 µg·h/mL
- AUC(0-inf) (intestine, normal mice): 1630 ± 130 µg·h/mL
- Cmax (intestine, LPS-treated mice): 76500 ± 10900 ng/mL
- Cmax (intestine, normal mice): 46700 ± 25900 ng/mL
- MRT (intestine, LPS-treated mice): 42.4 ± 6.38 h
- MRT (intestine, normal mice): 50.5 ± 2.31 h
- Tmax (intestine, LPS-treated mice): 2 h
- Tmax (intestine, normal mice): 4 h
- half-life (intestine, t1/2, LPS-treated mice): 1.74 ± 0.205 days
- half-life (intestine, t1/2, normal mice): 1.86 ± 0.0808 days
- Kp (intestine, LPS-treated mice, intestine): 11 ± 1.35
- AUC(0-inf) (kidney, LPS-treated mice): 11000 µg·h/mL
- AUC(0-inf) (kidney, normal mice): 8160 ± 422 µg·h/mL
- Cmax (kidney, LPS-treated mice): 112000 ± 11500 ng/mL
- Cmax (kidney, normal mice): 107000 ± 16600 ng/mL
- MRT (kidney, LPS-treated mice): 101 ± 30 h
- MRT (kidney, normal mice): 80.1 ± 16.6 h
- Tmax (kidney, LPS-treated mice): 5.33 ± 2.31 h
- Tmax (kidney, normal mice): 3.33 ± 1.15 h
- half-life (kidney, t1/2, LPS-treated mice): 3.24 ± 0.754 days
- half-life (kidney, t1/2, normal mice): 2.64 ± 0.337 days
- Kp (kidney, LPS-treated mice, kidney): 36.2 ± 3.83
- Kp (kidney, normal mice, kidney): 37.5 ± 5.7
- AUC(0-inf) (liver, LPS-treated mice): 7430 ± 632 µg·h/mL
- AUC(0-inf) (liver, normal mice): 5480 ± 237 µg·h/mL
- Cmax (liver, LPS-treated mice): 76300 ± 7020 ng/mL
- Cmax (liver, normal mice): 83300 ± 9290 ng/mL
- MRT (liver, LPS-treated mice): 82.1 ± 15.6 h
- MRT (liver, normal mice): 53.9 ± 8.29 h
- Tmax (liver, LPS-treated mice): 3.33 ± 1.15 h
- Tmax (liver, normal mice): 4 h
- half-life (liver, t1/2, LPS-treated mice): 2.89 ± 0.617 days
- half-life (liver, t1/2, normal mice): 1.98 ± 0.228 days
- Kp (liver, LPS-treated mice, liver): 27 ± 1.72
- Kp (liver, normal mice, liver): 28 ± 3.49
- AUC(0-t) (lung, LPS-treated mice): 10000 µg·h/mL
- AUC(0-inf) (lung, normal mice): 5300 ± 721 µg·h/mL
- Cmax (lung, LPS-treated mice): ≥ 96200 ng/mL
- Cmax (lung, normal mice): 60300 ± 3210 ng/mL
- MRT (lung, normal mice): 78.3 ± 24.5 h
- Tmax (lung, LPS-treated mice): ≥ 144 h
- Tmax (lung, normal mice): 13.3 ± 9.24 h
- half-life (lung, t1/2, normal mice): 2.71 ± 0.763 days
- Kp (lung, LPS-treated mice, lung): 45.8 ± 6.49
- Kp (lung, normal mice, lung): 24.7 ± 6.06
- Kp (muscle / blood, normal mice, muscle): 2
- AUC(0-inf) (muscle, LPS-treated mice): 674 ± 240 µg·h/mL
- AUC(0-inf) (muscle, normal mice): 410 ± 80.1 µg·h/mL
- Cmax (muscle, LPS-treated mice): 7510 ± 2110 ng/mL
- Cmax (muscle, normal mice): 6120 ± 440 ng/mL
- MRT (muscle, LPS-treated mice): 101 ± 44.4 h
- MRT (muscle, normal mice): 57.7 ± 7.81 h
- Tmax (muscle, LPS-treated mice): 6.67 ± 2.31 h
- Tmax (muscle, normal mice): 4 ± 3.16 h
- half-life (muscle, t1/2, LPS-treated mice): 3.28 ± 1.3 days
- half-life (muscle, t1/2, normal mice): 2.05 ± 0.169 days
- Kp (muscle, LPS-treated mice, muscle): 2.2 ± 0.31
- AUC(0-inf) (spleen, LPS-treated mice): 16000 µg·h/mL
- AUC(0-inf) (spleen, normal mice): 11300 µg·h/mL
- Cmax (spleen, LPS-treated mice): 89700 ± 10700 ng/mL
- Cmax (spleen, normal mice): 89700 ± 7090 ng/mL
- MRT (spleen, LPS-treated mice): 157 ± 29.5 h
- MRT (spleen, normal mice): 112 ± 34.7 h
- Tmax (spleen, LPS-treated mice): 17.3 ± 11.5 h
- Tmax (spleen, normal mice): 12 ± 10.6 h
- half-life (spleen, t1/2, LPS-treated mice): 4.62 ± 0.763 days
- half-life (spleen, t1/2, normal mice): 3.49 ± 0.946 days
- Kp (spleen, LPS-treated mice, spleen): 43.3 ± 6.88
- Kp (spleen, normal mice, spleen): 45.7 ± 6.62
- Kp (stomach / blood, LPS-treated mice, stomach): 6.1
- Kp (stomach / blood, normal mice, stomach): 5.3
- AUC(0-t) (stomach, LPS-treated mice): 1340 ± 192 µg·h/mL
- AUC(0-inf) (stomach, LPS-treated mice): 1640 ± 323 µg·h/mL
- AUC(0-inf) (stomach, normal mice): 1120 ± 207 µg·h/mL
- Cmax (stomach, LPS-treated mice): 27200 ± 9320 ng/mL
- Cmax (stomach, normal mice): 22300 ± 12400 ng/mL
- MRT (stomach, LPS-treated mice): 73.3 ± 17.7 h
- MRT (stomach, normal mice): 70 ± 14 h
- Tmax (stomach, LPS-treated mice): 3.33 ± 1.15 h
- Tmax (stomach, normal mice): 4.67 ± 3.06 h
- half-life (stomach, t1/2, LPS-treated mice): 2.56 ± 0.542 days
- half-life (stomach, t1/2, normal mice): 2.67 ± 0.688 days
- Kp (AUC in tissue divided by AUC in blood) (LPS-treated mice, adipose): 2.57 ± 0.62
- Kp (AUC in tissue divided by AUC in blood) (LPS-treated mice, brain): 0.59 ± 0.17
- Kp (AUC in tissue divided by AUC in blood) (LPS-treated mice, heart): 4.27 ± 1.59
- Kp (AUC in tissue divided by AUC in blood) (LPS-treated mice, stomach): 6.13 ± 0.87
- lung AUC ratio, acutely inflamed vs normal mice (TET inhalation (i.t.) administration): 2.32
- increase in systemic blood exposure (blood AUC ratio), LPS group vs normal/saline group (i.t. route): ~ 1.25 fold and 1.25 fold
- Kp (AUC in tissue divided by AUC in blood) (normal mice, adipose): 2.39 ± 0.40
- Kp (AUC in tissue divided by AUC in blood) (normal mice, brain): 0.97 ± 0.39
- Kp (AUC in tissue divided by AUC in blood) (normal mice, heart): 5.05 ± 0.38
- Kp (AUC in tissue divided by AUC in blood) (normal mice, intestine): 8.35 ± 0.67
- Kp (AUC in tissue divided by AUC in blood) (normal mice, muscle): 2.04 ± 0.38
- Kp (AUC in tissue divided by AUC in blood) (normal mice, stomach): 5.29 ± 0.66
